Literature values in patent US20120289568A1, “COMBINATIONS OF OXYBUTYNIN AND SALIVARY STIMULANTS FOR THE TREATMENT OF OVERACTIVE BLADDER” (THERAVIDA, INC., priority 2011, published 2012).

Details: 5 mg of pilocarpine

Compound: CC[C@@H]1C(=O)OC[C@@H]1Cc1cncn1C [pilocarpine]
- time of maximum saliva output after administration: about 30 minutes
